Structures are written as SMILES.

Chain of PI3Kβ (P42338 whole entry, the tested form may be a part): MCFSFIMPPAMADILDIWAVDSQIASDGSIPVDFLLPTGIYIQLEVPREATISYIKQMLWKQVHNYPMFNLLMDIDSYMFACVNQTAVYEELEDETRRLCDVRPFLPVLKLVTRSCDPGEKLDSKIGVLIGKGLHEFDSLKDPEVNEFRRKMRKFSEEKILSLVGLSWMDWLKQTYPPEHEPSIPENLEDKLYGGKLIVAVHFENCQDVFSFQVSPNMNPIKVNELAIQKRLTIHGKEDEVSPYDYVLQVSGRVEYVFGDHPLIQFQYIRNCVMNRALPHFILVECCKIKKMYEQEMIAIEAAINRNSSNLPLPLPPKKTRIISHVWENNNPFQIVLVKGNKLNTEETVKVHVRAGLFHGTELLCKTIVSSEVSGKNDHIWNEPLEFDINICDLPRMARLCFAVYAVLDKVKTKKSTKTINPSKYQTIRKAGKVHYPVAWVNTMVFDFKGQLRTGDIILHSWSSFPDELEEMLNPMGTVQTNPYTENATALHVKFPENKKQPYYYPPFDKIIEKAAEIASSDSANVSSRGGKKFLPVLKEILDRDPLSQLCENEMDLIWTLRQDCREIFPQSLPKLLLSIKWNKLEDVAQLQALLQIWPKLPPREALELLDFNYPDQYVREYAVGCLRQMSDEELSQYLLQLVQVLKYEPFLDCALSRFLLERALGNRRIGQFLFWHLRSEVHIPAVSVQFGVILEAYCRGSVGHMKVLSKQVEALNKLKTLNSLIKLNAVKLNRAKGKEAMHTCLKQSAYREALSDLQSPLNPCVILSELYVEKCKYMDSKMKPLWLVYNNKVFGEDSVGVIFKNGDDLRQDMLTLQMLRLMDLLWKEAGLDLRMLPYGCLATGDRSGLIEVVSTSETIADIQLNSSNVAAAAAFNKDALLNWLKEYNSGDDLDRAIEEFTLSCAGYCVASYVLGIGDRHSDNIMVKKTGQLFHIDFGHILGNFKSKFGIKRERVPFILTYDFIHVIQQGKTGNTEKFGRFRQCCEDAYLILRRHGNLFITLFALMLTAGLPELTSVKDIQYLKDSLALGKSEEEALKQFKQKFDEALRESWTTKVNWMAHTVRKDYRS
Chain of PI3Kβ (P27986 whole entry partner, the tested form may be a part): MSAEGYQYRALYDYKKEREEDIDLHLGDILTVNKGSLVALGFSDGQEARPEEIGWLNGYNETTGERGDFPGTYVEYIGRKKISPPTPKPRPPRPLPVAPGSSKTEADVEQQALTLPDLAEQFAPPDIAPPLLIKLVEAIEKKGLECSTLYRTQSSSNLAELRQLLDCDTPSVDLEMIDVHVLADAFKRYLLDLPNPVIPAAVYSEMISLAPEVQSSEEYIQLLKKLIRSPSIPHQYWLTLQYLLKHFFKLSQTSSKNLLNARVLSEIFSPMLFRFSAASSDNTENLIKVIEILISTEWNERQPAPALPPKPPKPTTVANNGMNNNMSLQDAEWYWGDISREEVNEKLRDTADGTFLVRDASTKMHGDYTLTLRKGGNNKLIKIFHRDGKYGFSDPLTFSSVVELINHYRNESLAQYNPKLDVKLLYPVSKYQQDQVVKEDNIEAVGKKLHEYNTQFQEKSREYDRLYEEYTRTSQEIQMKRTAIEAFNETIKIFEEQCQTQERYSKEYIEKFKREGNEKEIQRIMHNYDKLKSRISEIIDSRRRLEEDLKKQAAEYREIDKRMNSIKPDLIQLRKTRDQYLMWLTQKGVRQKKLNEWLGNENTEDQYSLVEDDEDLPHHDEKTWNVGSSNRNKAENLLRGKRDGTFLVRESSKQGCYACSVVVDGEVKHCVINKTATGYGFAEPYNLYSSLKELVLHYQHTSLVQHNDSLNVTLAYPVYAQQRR

This assay concerns the target PI3Kβ (Homo sapiens (Human), UniProt P42338). Put plainly: TR-FRET enzymatic activity assay, PI3Kβ. Type of assay: biochemical. The following applies: 2× Km ATP, 2 μM PIP2, 30 minutes at 25° C., read-out: IC50-PIP-Beta. Summed up: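 Purified recombinant heterodimeric PI3Kβ; PIP3 formation read by TR-FRET as competition with fluorescent tracer for GRP-1 PH domain binding. Compounds incubated 30 min at 25 °C.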
In the case of `CCc1nc2c(-c3nnc[nH]3)cc(-c3ccnc(N)c3)cc2n1-c1ccnc2c(F)ccc(F)c12` [Example 70, 4-[3-(5,8-difluoroquinolin-4-yl)-2-ethyl-7-(4H-1,2,4-triazol-3-yl)benzimidazol-5-yl]pyridin-2-amine], the 50% inhibitory concentration (IC50) turned out to be 13 nM.

Take `Nc1cc(-c2cc(-c3nnc[nH]3)c3nc(CC4CC4)n(-c4ccnc5c(F)ccc(F)c45)c3c2)ccn1` [Example 71, 4-[2-(cyclopropylmethyl)-3-(5,8-difluoroquinolin-4-yl)-7-(4H-1,2,4-triazol-3-yl)benzimidazol-5-yl]pyridin-2-amine]: the IC50 worked out at 13 nM.

For the compound `CCCc1nc2c(-c3nnc[nH]3)cc(-c3ccnc(N)c3)cc2n1-c1ccnc2c(F)ccc(F)c12` [Example 72, 4-[3-(5,8-difluoroquinolin-4-yl)-2-propyl-7-(4H-1,2,4-triazol-3-yl)benzimidazol-5-yl]pyridin-2-amine], the IC50 is 10 nM.

On to `Nc1cc(-c2cc(-c3nnc[nH]3)c3nc(CC4CC4)n(-c4ccnc5c(Cl)cccc45)c3c2)ccn1` [Example 73, 4-[3-(8-chloroquinolin-4-yl)-2-(cyclopropylmethyl)-7-(4H-1,2,4-triazol-3-yl)benzimidazol-5-yl]pyridin-2-amine], for which the IC50 came out at 8 nM.

On to `Nc1cc(-c2cc(-c3nnc[nH]3)c3nc(C4CC4)n(-c4ccnc5c(Cl)cccc45)c3c2)ccn1` [Example 74, 4-[3-(8-chloroquinolin-4-yl)-2-cyclopropyl-7-(4H-1,2,4-triazol-3-yl)benzimidazol-5-yl]pyridin-2-amine], for which the IC50 was found to be 29 nM.

Turning to `Cc1nc2c(-c3nnc[nH]3)cc(-c3ccnc(N)c3F)cc2n1-c1ccnc2c(F)ccc(F)c12` [Example 75, 4-[3-(5,8-difluoroquinolin-4-yl)-2-methyl-7-(4H-1,2,4-triazol-3-yl)benzimidazol-5-yl]-3-fluoropyridin-2-amine], the IC50 turned out to be 3 nM.

As for `Cc1nc2c(-c3nnc[nH]3)cc(-c3cc(N)ncc3F)cc2n1-c1ccnc2c(F)ccc(F)c12` [Example 76, 4-[3-(5,8-difluoroquinolin-4-yl)-2-methyl-7-(4H-1,2,4-triazol-3-yl)benzimidazol-5-yl]-5-fluoropyridin-2-amine], the IC50 was 50 nM.

For `CNc1nccc(-c2cc(-c3nnc[nH]3)c3nc(C)n(-c4ccnc5c(F)ccc(F)c45)c3c2)c1F` [Example 77, 4-[3-(5,8-difluoroquinolin-4-yl)-2-methyl-7-(4H-1,2,4-triazol-3-yl)benzimidazol-5-yl]-3-fluoro-N-methylpyridin-2-amine], the IC50 was 1400 nM.

With `CCCc1nc2c(-c3nnc[nH]3)cc(-c3ccnc(N)c3F)cc2n1-c1ccnc2c(F)ccc(F)c12` [Example 78, 4-[3-(5,8-difluoroquinolin-4-yl)-2-propyl-7-(4H-1,2,4-triazol-3-yl)benzimidazol-5-yl]-3-fluoropyridin-2-amine], the IC50 was 5 nM.

As to `Nc1nccc(-c2cc(-c3nnc[nH]3)c3nc(C4CC4)n(-c4ccnc5c(Cl)cccc45)c3c2)c1F` [Example 79, 4-[3-(8-chloroquinolin-4-yl)-2-cyclopropyl-7-(4H-1,2,4-triazol-3-yl)benzimidazol-5-yl]-3-fluoropyridin-2-amine], the IC50 is 8 nM.

Consider `Cc1nc2c(-c3nnc[nH]3)cc(-c3ccnc(N)c3F)cc2n1-c1ccnc2c(Cl)cccc12` [Example 80, 4-(1-(8-chloroquinolin-4-yl)-2-methyl-4-(4H-1,2,4-triazol-3-yl)-1H-benzo[d]imidazol-6-yl)-3-fluoropyridin-2-amine], for which the IC50 stood at 2 nM.

Consider `Nc1nccc(-c2cc(-c3nnc[nH]3)c3nc(C4CC4)n(-c4ccnc5c(F)ccc(F)c45)c3c2)c1F` [Example 81, 4-[2-cyclopropyl-3-(5,8-difluoroquinolin-4-yl)-7-(4H-1,2,4-triazol-3-yl)benzimidazol-5-yl]-3-fluoropyridin-2-amine], for which the IC50 is 15 nM.

One may read the IC50 as the point on the concentration scale where inhibition reaches its midpoint.
